Holding throughout (experiment): Bacterial growth minimal inhibitory concentration (CLSI broth microdilution)
Holding throughout (assay type): cell-based

For test [1], the system named is P. aeruginosa ATCC27853. The note with it: quinolone-sensitive strain, cation-adjusted Mueller-Hinton Broth; for MIC: Pseudomonas aeruginosa, ATCC27853. On the procedure: (§1) Minimal Inhibitory Concentrations (MICs; mg/L) were determined in cation-adjusted Mueller-Hinton Broth by a microdilution method following the description given in “Methods for Dilution Antimicrobial Susceptibility Tests for Bacteria that Grow Aerobically”, Approved standard, 7th ed., Clinical and Laboratory Standards Institute (CLSI) Document M7-A7, Wayne, Pa., USA (2006).
(§2) All Reference Example compounds were tested against several Gram-negative bacteria. K. pneumoniae A-651 is a multiply resistant strain (in particular quinolone-resistant), while E. coli ATCC25922 and P. aeruginosa ATCC27853 are quinolone-sensitive strains. The corresponding antibacterial test results are given in Table 1 hereafter (MICs in mg/L).

Test [2] has as its system K. pneumoniae A-651. The note with it: multiply resistant strain (in particular quinolone-resistant), cation-adjusted Mueller-Hinton Broth; for MIC: Klebsiella pneumoniae, A651. How it is done:
as §1, §2

For test [3], the system named is E. coli ATCC25922. The note with it: quinolone-sensitive strain, cation-adjusted Mueller-Hinton Broth; for MIC: Escherichia coli, ATCC25922. How it is done:
as §1, §2

Each structure is given as a SMILES string. In brackets after ≈: the same amount, converted by molar mass.

From patent US10314823B2, “Substituted 1,2-dihydro-3H-pyrrolo[1,2-c]imidazol-3-one antibacterial compounds” (IDORSIA PHARMACEUTICALS LTD, priority 2015, dated 2019) come the findings set out here.

With `C[C@@](CCN1Cc2cc(C#CC#CCOC(=O)N3CC(O)C3)cn2C1=O)(C(=O)NO)S(C)(=O)=O` [Example 24, (3R)-5-(2-(4-(hydroxyamino)-3-methyl-3-(methylsulfonyl)-4-oxobutyl)-3-oxo-2,3-dihydro-1H-pyrrolo[1,2-c]imidazol-6-yl)penta-2,4-diyn-1-yl 3-hydroxyazetidine-1-carboxylate], the MIC was 1 µg/mL (≈ 2.03 µM) in test [1], 1 µg/mL (≈ 2.03 µM) in test [2] and 0.5 µg/mL (≈ 1.02 µM) in test [3].
In the case of `C[C@@](CCN1Cc2cc(C#Cc3ccc(OCCS(C)(=O)=O)cc3)cn2C1=O)(C(=O)NO)S(C)(=O)=O` [Example 25, (2R)—N-hydroxy-2-methyl-2-(methylsulfonyl)-4-(6-((4-(2-(methylsulfonyl)ethoxy)phenyl)ethynyl)-3-oxo-1H-pyrrolo[1,2-c]imidazol-2(3H)-yl)butanamide], the MIC in test [1] turned out to be 1 µg/mL (≈ 1.86 µM); in test [2], 0.5 µg/mL (≈ 0.93 µM); in test [3], 0.125 µg/mL (≈ 0.233 µM).
For `C[C@@](CCN1Cc2cc(C#Cc3ccc(CNC(=O)OC4CNC4)cc3)cn2C1=O)(C(=O)NO)S(C)(=O)=O` [Example 26, azetidin-3-yl (3R)-(4-((2-(4-(hydroxyamino)-3-methyl-3-(methylsulfonyl)-4-oxobutyl)-3-oxo-2,3-dihydro-1H-pyrrolo[1,2-c]imidazol-6-yl)ethynyl)benzyl)carbamate] the same measures were 4 µg/mL (≈ 7.36 µM), 8 µg/mL (≈ 14.7 µM) and 8 µg/mL (≈ 14.7 µM).
On the same counts, the results for `CN1CC(OC(=O)NCc2ccc(C#Cc3cc4n(c3)C(=O)N(CC[C@](C)(C(=O)NO)S(C)(=O)=O)C4)cc2)C1` [Example 27, 1-methylazetidin-3-yl (3R)-(4-((2-(4-(hydroxyamino)-3-methyl-3-(methylsulfonyl)-4-oxobutyl)-3-oxo-2,3-dihydro-1H-pyrrolo[1,2-c]imidazol-6-yl)ethynyl)benzyl)carbamate] are 8 µg/mL (≈ 14.3 µM), 4 µg/mL (≈ 7.17 µM) and 2 µg/mL (≈ 3.59 µM).
For `C[C@@](CCN1Cc2cc(C#CC#C[C@@H]3C[C@H]3CN3CCOCC3)cn2C1=O)(C(=O)NO)S(C)(=O)=O` [Example 29, (2R)—N-hydroxy-2-methyl-2-(methylsulfonyl)-4-(6-(((1R,2R)-2-(morpholinomethyl)cyclopropyl)buta-1,3-diyn-1-yl)-3-oxo-1H-pyrrolo[1,2-c]imidazol-2(3H)-yl)butanamide] the same measures were 2 µg/mL (≈ 3.98 µM), 0.5 µg/mL (≈ 0.995 µM) and 0.25 µg/mL (≈ 0.497 µM).
For the molecule `CN1CC(C#CC#Cc2cc3n(c2)C(=O)N(CC[C@](C)(C(=O)NO)S(C)(=O)=O)C3)C1` [Example 30, (2R)—N-hydroxy-2-methyl-4-(6-((1-methylazetidin-3-yl)buta-1,3-diyn-1-yl)-3-oxo-1H-pyrrolo[1,2-c]imidazol-2(3H)-yl)-2-(methylsulfonyl)butanamide], the minimum inhibitory concentration (MIC) in test [1], in test [2] and in test [3] was 0.5 µg/mL (≈ 1.16 µM) throughout.
With `C[C@@](CCN1Cc2cc(C#CC#CC3CNC3)cn2C1=O)(C(=O)NOC1CCCCO1)S(C)(=O)=O` (stereo partly drawn) [Example 31, (2R)-4-(6-(azetidin-3-ylbuta-1,3-diyn-1-yl)-3-oxo-1H-pyrrolo[1,2-c]imidazol-2(3H)-yl)-2-methyl-2-(methylsulfonyl)-N-((tetrahydro-2H-pyran-2-yl)oxy)butanamide], in test [1], the “MIC for P. aeruginosa ATCC27853” value amounted to 1 mg/L. In addition, in test [2], the “MIC for K. Pneumoniae A-651” value is listed as 8 mg/L. Moreover, the “MIC for E. coli ATCC25922” value in test [3] was 8 mg/L.
On to `CC(=O)N1CC(C#CC#Cc2cc3n(c2)C(=O)N(CC[C@](C)(C(=O)NO)S(C)(=O)=O)C3)C1` [Example 32, (2R)-4-(6-((1-acetylazetidin-3-yl)buta-1,3-diyn-1-yl)-3-oxo-1H-pyrrolo[1,2-c]imidazol-2(3H)-yl)-N-hydroxy-2-methyl-2-(methylsulfonyl)butanamide], for which the minimal inhibitory concentration (MIC) in test [1] stood at 1 µg/mL (≈ 2.17 µM); in test [2], 2 µg/mL (≈ 4.34 µM); in test [3] it was 1 µg/mL (≈ 2.17 µM).
In the case of `CN1CC(F)(C#CC#Cc2cc3n(c2)C(=O)N(CC[C@](C)(C(=O)NO)S(C)(=O)=O)C3)C1` [Example 33, (2R)-4-(6-((3-fluoro-1-methylazetidin-3-yl)buta-1,3-diyn-1-yl)-3-oxo-1H-pyrrolo[1,2-c]imidazol-2(3H)-yl)-N-hydroxy-2-methyl-2-(methylsulfonyl)butanamide], the results for the MIC in test [1], in test [2] and in test [3] were 2 µg/mL (≈ 4.44 µM), 0.25 µg/mL (≈ 0.555 µM) and 0.25 µg/mL (≈ 0.555 µM), respectively.
As for `CN1CCC(C#CC#Cc2cc3n(c2)C(=O)N(CC[C@](C)(C(=O)NO)S(C)(=O)=O)C3)CC1` [Example 34, (2R)—N-hydroxy-2-methyl-4-(6-((1-methylpiperidin-4-yl)buta-1,3-diyn-1-yl)-3-oxo-1H-pyrrolo[1,2-c]imidazol-2(3H)-yl)-2-(methylsulfonyl)butanamide], the MIC in test [1] amounted to 1 µg/mL (≈ 2.17 µM); in test [2], 4 µg/mL (≈ 8.69 µM); in test [3], 4 µg/mL (≈ 8.69 µM).
With `C[C@@](CCN1Cc2cc(C#CC#CC3CCN(C4COC4)CC3)cn2C1=O)(C(=O)NO)S(C)(=O)=O` [Example 35, (2R)—N-hydroxy-2-methyl-2-(methylsulfonyl)-4-(6-((1-(oxetan-3-yl)piperidin-4-yl)buta-1,3-diyn-1-yl)-3-oxo-1H-pyrrolo[1,2-c]imidazol-2(3H)-yl)butanamide], the values for the MIC in test [1], in test [2] and in test [3] were 2 µg/mL (≈ 3.98 µM), 1 µg/mL (≈ 1.99 µM) and 0.5 µg/mL (≈ 0.995 µM), respectively.
For `C[C@@](CCN1Cc2cc(C#Cc3ccc(CN4CC[C@H](O)C(F)(F)C4)cc3)cn2C1=O)(C(=O)NO)S(C)(=O)=O` [Example 37, (2R)-4-(6-((4-(((S)-3,3-difluoro-4-hydroxypiperidin-1-yl)methyl)phenyl)ethynyl)-3-oxo-1H-pyrrolo[1,2-c]imidazol-2(3H)-yl)-N-hydroxy-2-methyl-2-(methylsulfonyl)butanamide] the same measures were 2 µg/mL (≈ 3.54 µM), 0.5 µg/mL (≈ 0.886 µM) and 0.5 µg/mL (≈ 0.886 µM).
In the case of `CNC1(C#CC#Cc2cc3n(c2)C(=O)N(CC[C@](C)(C(=O)NO)S(C)(=O)=O)C3)CC1` [Example 38, (2R)—N-hydroxy-2-methyl-4-(6-((1-(methylamino)cyclopropyl)buta-1,3-diyn-1-yl)-3-oxo-1H-pyrrolo[1,2-c]imidazol-2(3H)-yl)-2-(methylsulfonyl)butanamide], the figures for the minimum inhibitory concentration (MIC) in test [1], in test [2] and in test [3] were 0.5 µg/mL (≈ 1.16 µM), 0.25 µg/mL (≈ 0.578 µM) and 0.063 µg/mL (≈ 0.146 µM), respectively.
On the same counts, the results for `CN1CC(OC(=O)NCC#CC#Cc2cc3n(c2)C(=O)N(CC[C@](C)(C(=O)NO)S(C)(=O)=O)C3)C1` [Example 39, 1-methylazetidin-3-yl (3R)-(5-(2-(4-(hydroxyamino)-3-methyl-3-(methylsulfonyl)-4-oxobutyl)-3-oxo-2,3-dihydro-1H-pyrrolo[1,2-c]imidazol-6-yl)penta-2,4-diyn-1-yl)carbamate] are 4 µg/mL (≈ 7.91 µM), 4 µg/mL (≈ 7.91 µM) and 8 µg/mL (≈ 15.8 µM).
On the same counts, the results for `C[C@@](CCN1Cc2cc(C#CC#CCN3CCC(O)CC3)cn2C1=O)(C(=O)NO)S(C)(=O)=O` [Example 40, (2R)—N-hydroxy-4-(6-(5-(4-hydroxypiperidin-1-yl)penta-1,3-diyn-1-yl)-3-oxo-1H-pyrrolo[1,2-c]imidazol-2(3H)-yl)-2-methyl-2-(methylsulfonyl)butanamide] are 2 µg/mL (≈ 4.2 µM), 2 µg/mL (≈ 4.2 µM) and 2 µg/mL (≈ 4.2 µM).
For `C[C@@](CCN1Cc2cc(C#CC#CC3CN(CCO)C3)cn2C1=O)(C(=O)NO)S(C)(=O)=O` [Example 41, (2R)—N-hydroxy-4-(6-((1-(2-hydroxyethyl)azetidin-3-yl)buta-1,3-diyn-1-yl)-3-oxo-1H-pyrrolo[1,2-c]imidazol-2(3H)-yl)-2-methyl-2-(methylsulfonyl)butanamide] the same measures were 0.5 µg/mL (≈ 1.08 µM), 0.5 µg/mL (≈ 1.08 µM) and 0.5 µg/mL (≈ 1.08 µM).
As to `C[C@@](CCN1Cc2cc(C#Cc3ccc(CN4CC(O)C4)cc3)cn2C1=O)(C(=O)NO)S(C)(=O)=O` [Example 43, (2R)—N-hydroxy-4-(6-((4-((3-hydroxyazetidin-1-yl)methyl)phenyl)ethynyl)-3-oxo-1H-pyrrolo[1,2-c]imidazol-2(3H)-yl)-2-methyl-2-(methylsulfonyl)butanamide], the MIC is 0.5 µg/mL (≈ 0.999 µM) in test [1], 2 µg/mL (≈ 4 µM) in test [2] and 0.5 µg/mL (≈ 0.999 µM) in test [3].
`CN(C)C[C@@H]1C[C@H]1C#CC#Cc1cc2n(c1)C(=O)N(CC[C@](C)(C(=O)NO)S(C)(=O)=O)C2` [Example 44, (2R)-4-(6-(((1R,2R)-2-((dimethylamino)methyl)cyclopropyl)buta-1,3-diyn-1-yl)-3-oxo-1H-pyrrolo[1,2-c]imidazol-2(3H)-yl)-N-hydroxy-2-methyl-2-(methylsulfonyl)butanamide]: the minimal inhibitory concentration (MIC) in test [1] worked out at 4 µg/mL (≈ 8.69 µM); in test [2] it was 2 µg/mL (≈ 4.34 µM); in test [3], 2 µg/mL (≈ 4.34 µM).
For the molecule `C[C@@](CCN1Cc2cc(C#CC#CC3(O)CCN(C4COC4)CC3)cn2C1=O)(C(=O)NO)S(C)(=O)=O` [Example 45, (2R)—N-hydroxy-4-(6-((4-hydroxy-1-(oxetan-3-yl)piperidin-4-yl)buta-1,3-diyn-1-yl)-3-oxo-1H-pyrrolo[1,2-c]imidazol-2(3H)-yl)-2-methyl-2-(methylsulfonyl)butanamide], the MIC in test [1] was more than 8 µg/mL; in test [2], 8 µg/mL (≈ 15.4 µM); in test [3], 8 µg/mL (≈ 15.4 µM).

The term MIC denotes the lowest concentration found to suppress growth.
